Data published in patent US20220324835A1 (Nurix Therapeutics, Inc., priority 2018, published 2022).

Experiments:
[1] = biological target: T1, Cbl-b (Homo sapiens, UniProt Q13191); assay: Cbl-b inhibition assay (Cbl-b activity assay, FRET, Biological Example 1; 100 mM NaCl, 60 nM Src kinase); type: biochemical; conditions: upper bound stated in text lists; read-out: IC50 values in the Cbl-b inhibition assay of Biological Example 1
Text: FIG. 1A and FIG. 1B show a series of diagrams depicting the activity assay utilized to assay inhibition of Cbl-b activity by a Cbl-b inhibitor. FIG. 1A: The activity assay mixture comprises an N-terminal biotinylated Avi-tagged Cbl-b, an E2 enzyme (i.e., UbcH5B) irreversibly conjugated to Bodipy-Fluorescein tagged ubiquitin (i.e., UbcH5B-Ub), a Src kinase, streptavidin-terbium, and assay buffer. Phosphorylation of Cbl-b by the Src kinase allows UbcH5B-Ub to bind to Cbl-b and bring the Bodipy-Fluorescein tagged ubiquitin in proximity to the streptavidin-terbium bound to the N-terminal biotinylated Avi-tagged Cbl-b. […] FIG. 1B: In the presence of a Cbl-b inhibitor, such as one described herein, Cbl-b is unable to bind UbcH5B-Ub. The lack of a FRET signal indicates Cbl-b is inhibited by the Cbl-b inhibitor. Ub indicates ubiquitin; N-Avi indicates biotinylated Avi-tag at the N-terminus of Cbl-b; inhibitor indicates Cbl-b inhibitor.
The lack of a FRET signal indicates Cbl-b is inhibited by the Cbl-b inhibitor. In FIG. 1A and FIG. 1B, Ub indicates ubiquitin; N-Avi indicates biotinylated Avi-tag at the N-terminus of Cbl-b; and inhibitor indicates Cbl-b inhibitor.

[2] = biological target: T1, Cbl-b; assay: Cbl-b activity assay (Cbl-b inhibition assay), TR-FRET of Cbl-b interaction with UbcH5B-Ub; type: biochemical; conditions: assay buffer with 100 mM NaCl, 60 nM Src kinase; read-out: Cbl-b activity IC50
Experimental: The ability of candidate compounds to inhibit Cbl-b activity was measured by monitoring the interaction of Cbl-b with UbcH5B-Ub in the presence of the candidate compound.
Fluorescently labeled UbcH5B-Ub was prepared by conjugating ubiquitin (Ub), labeled at its N-terminus with Bodipy-Fluorescein, to UbcH5B, an E2 enzyme, harboring a cysteine to lysine mutation at position 85. […] After incubation in the presence of the candidate compound, the plate was incubated for an additional 1.5 hours in the presence of 60 nM Src kinase with 1 mM ATP and 5 mM MgCl2 (final concentrations). […] The plate was incubated for 1 hour.
Column marked with an asterisk (*) were tested as described above with assay buffer containing 50 mM NaCl instead of 100 mM NaCl and 30 nM Src kinase instead of 60 nM Src kinase. The resulting data for the Cbl-b binding assay was solvent corrected and double referenced prior to analysis. All data were globally fit to a steady-state affinity and kinetic binding model where applicable). Fit parameters were derived from a 1:1 binding model using the Biacore T200 Evaluation Software V2.0 (GE Healthcare) (Table 2).

T1 sequence (Q13191 36-427): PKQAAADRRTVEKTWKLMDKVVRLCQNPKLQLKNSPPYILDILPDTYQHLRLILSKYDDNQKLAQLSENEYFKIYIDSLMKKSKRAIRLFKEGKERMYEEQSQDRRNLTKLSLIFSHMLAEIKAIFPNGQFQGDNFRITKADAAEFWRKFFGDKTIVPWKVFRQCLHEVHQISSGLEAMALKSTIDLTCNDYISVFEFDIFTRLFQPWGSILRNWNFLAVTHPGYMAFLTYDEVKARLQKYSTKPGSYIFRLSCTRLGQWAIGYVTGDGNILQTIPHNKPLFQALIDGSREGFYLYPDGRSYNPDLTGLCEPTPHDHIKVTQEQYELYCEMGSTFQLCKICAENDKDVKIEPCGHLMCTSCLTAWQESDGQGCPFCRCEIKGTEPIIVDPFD

Row | SMILES | IC50 [1] [nM] | IC50 [2] [nM]
1 | Cn1cnnc1CC1(c2cccc(N3Cc4c(cc(CN5CCOC(CF)C5)cc4C(F)(F)F)C3=O)c2)COC1 (centres unmarked) [Example 714, 6-((2-(fluoromethyl)morpholino)methyl)-2-(3-(3-((4-methyl-4H-1,2,4-triazol-3-yl)methyl)oxetan-3-yl)phenyl)-4-(trifluoromethyl)isoindolin-1-one] | ≤ 100 | < 100
2 | Cc1c[nH]nc1S[C@@H](C)c1ccnc(NC(=O)c2ccc3ccccc3n2)c1 [Compound 128a, (S)-N-(4-(1-((4-methyl-1H-pyrazol-3-yl)thio)ethyl)pyridin-2-yl)quinoline-2-carboxamide] | ≤ 10000 | 1000 to 3000
3 | C[C@H](Cc1ncco1)c1cccc(N2Cc3c(cccc3C(F)(F)F)C2=O)c1 [Compound 261, (R)-2-(3-(1-(oxazol-2-yl)propan-2-yl)phenyl)-4-(trifluoromethyl)isoindolin-1-one] | ≤ 10000 | 3000 to 10000
4 | Cn1cnnc1CC1(c2cccc(N3Cc4c(cc(CN5CC[C@H](F)[C@@H](F)C5)cc4C(F)(F)F)C3=O)c2)COC1 [Example 626a, 6-(((3S,4S)-3,4-difluoropiperidin-1-yl)methyl)-2-(3-(3-((4-methyl-4H-1,2,4-triazol-3-yl)methyl)oxetan-3-yl)phenyl)-4-(trifluoromethyl)isoindolin-1-one] | ≤ 100 | < 100
5 | Cn1cnnc1CC1(c2cccc(N3Cc4c(cc(CC5CNCCC5=O)cc4C(F)(F)F)C3=O)c2)COC1 (centres unmarked) [Compound 530, 2-(3-(3-((4-methyl-4H-1,2,4-triazol-3-yl)methyl)oxetan-3-yl)phenyl)-6-((4-oxopiperidin-3-yl)methyl)-4-(trifluoromethyl)isoindolin-1-one] | ≤ 100 | < 100
6 | C[C@@H]1CN(Cc2cc3c(c(C(F)(F)F)c2)CN(c2cccc(C4(Cc5nncn5C)COC4)c2)C3=O)C[C@H](C)O1 [Example 664, 6-(((cis)-2,6-dimethylmorpholino)methyl)-2-(3-(3-((4-methyl-4H-1,2,4-triazol-3-yl)methyl)oxetan-3-yl)phenyl)-4-(trifluoromethyl)isoindolin-1-one] | ≤ 100 | < 100
7 | CC(Cc1nocc1CO)c1cccc(N2Cc3c(cccc3C(F)(F)F)C2=O)c1 (centres unmarked) [Compound 269, 2-(3-(1-(4-(hydroxymethyl)isoxazol-3-yl)propan-2-yl)phenyl)-4-(trifluoromethyl)isoindolin-1-one] | ≤ 10000 | 1000 to 3000
8 | Cc1cnnn1CC(C)c1cccc(NC(=O)c2cccc(C(F)(F)F)n2)c1 (centres unmarked) [Compound 218, N-[3-[1-methyl-2-(5-methyltriazol-1-yl)ethyl]phenyl]-6-(trifluoromethyl)pyridine-2-carboxamide] | ≤ 500 | 301 to 1000
9 | CC(C)C1CN(Cc2cc3c(c(C(F)(F)F)c2)CN(c2cccc(C4(Cc5nncn5C)COC4)c2)C3=O)CCO1 (centres unmarked) [Example 716, 6-[(2-isopropylmorpholin-4-yl)methyl]-2-(3-{3-[(4-methyl-1,2,4-triazol-3-yl)methyl]oxetan-3-yl}phenyl)-4-(trifluoromethyl)-3H-isoindol-1-one] | ≤ 100 | < 100
10 | C[C@H](Cc1nncn1C)c1cccc(NC(=O)c2cc(C(=O)N3CC(CO)C3)ccn2)c1 [Compound 232, 4-[3-(hydroxymethyl)azetidine-1-carbonyl]-N-[3-[(2R)-1-(4-methyl-4H-1,2,4-triazol-3-yl)propan-2-yl]phenyl]pyridine-2-carboxamide] | ≤ 10000 | 1000 to 3000
11 | CC(c1cc2c(c(C(F)(F)F)c1)CN(c1cccc(C3(Cc4nncn4C)COC3)c1)C2=O)n1ccnc1 (centres unmarked) [Compound 542, 6-(1-(1H-imidazol-1-yl)ethyl)-2-(3-(3-((4-methyl-4H-1,2,4-triazol-3-yl)methyl)oxetan-3-yl)phenyl)-4-(trifluoromethyl)isoindolin-1-one] | ≤ 100 | < 100
12 | Cn1cnnc1CC1(c2cccc(N3Cc4c(cc(CN5CCOC6(CCOC6)C5)cc4C(F)(F)F)C3=O)c2)COC1 (centres unmarked) [Example 712, 6-((2,6-dioxa-9-azaspiro[4.5]decan-9-yl)methyl)-2-(3-(3-((4-methyl-4H-1,2,4-triazol-3-yl)methyl)oxetan-3-yl)phenyl)-4-(trifluoromethyl)isoindolin-1-one] | ≤ 100 | < 100
13 | C[C@@H]1CCN(Cc2cc3c(c(C(F)(F)F)c2)CN(c2cccc(C4(Cc5nncn5C)COC4)c2)C3=O)C[C@@H]1F [Example 639a, 6-(((3R,4R)-3-fluoro-4-methylpiperidin-1-yl)methyl)-2-(3-(3-((4-methyl-4H-1,2,4-triazol-3-yl)methyl)oxetan-3-yl)phenyl)-4-(trifluoromethyl)isoindolin-1-one] | ≤ 100 | < 100
14 | Cn1cnnc1CC1(c2cccc(N3Cc4c(cc(CN5CC[C@@H](c6ccccc6)C5)cc4C(F)(F)F)C3=O)c2)COC1 [Example 662b, (S)-2-(3-(3-((4-methyl-4H-1,2,4-triazol-3-yl)methyl)oxetan-3-yl)phenyl)-6-((3-phenylpyrrolidin-1-yl)methyl)-4-(trifluoromethyl)isoindolin-1-one] | ≤ 100 | < 100
15 | Cn1cnnc1CC1(c2cccc(N3Cc4c(cc(CN5CC[C@@H](F)[C@@H](F)C5)cc4C(F)(F)F)C3=O)c2)COC1 (relative stereo) [Example 634, 6-((cis-3,4-difluoropiperidin-1-yl)methyl)-2-(3-(3-((4-methyl-4H-1,2,4-triazol-3-yl)methyl)oxetan-3-yl)phenyl)-4-(trifluoromethyl)isoindolin-1-one] | ≤ 100 | < 100
16 | Cc1cc(C(=O)Nc2cccc(C3=C(c4nncn4C)CCC3)c2)nc(C2CC2)n1 [Compound 518, 2-cyclopropyl-6-methyl-N-(3-(2-(4-methyl-4H-1,2,4-triazol-3-yl)cyclopent-1-en-1-yl)phenyl)pyrimidine-4-carboxamide] | ≤ 300 | 100 to 300
17 | Cn1cnnc1CC1(c2cccc(N3Cc4c(cc(CN5CCOC(C6CC6)C5)cc4C(F)(F)F)C3=O)c2)COC1 (centres unmarked) [Example 718, 6-[(2-cyclopropylmorpholin-4-yl)methyl]-2-(3-{3-[(4-methyl-1,2,4-triazol-3-yl)methyl]oxetan-3-yl}phenyl)-4-(trifluoromethyl)-3H-isoindol-1-one] | ≤ 100 | < 100
18 | C[C@H](Cc1nncn1C)c1cc(C2=CCOCC2)nc(N2Cc3c(cccc3C(F)(F)F)C2=O)c1 [Example 685, (R)-2-(6-(3,6-dihydro-2H-pyran-4-yl)-4-(1-(4-methyl-4H-1,2,4-triazol-3-yl)propan-2-yl)pyridin-2-yl)-4-(trifluoromethyl)isoindolin-1-one] | ≤ 1000 | 301 to 1000
19 | Cn1cnnc1CC1(c2cccc(N3Cc4c(cc(CN5CCO[C@H](C(F)(F)F)C5)cc4C(F)(F)F)C3=O)c2)COC1 [Example 707, (S)-2-(3-(3-((4-methyl-4H-1,2,4-triazol-3-yl)methyl)oxetan-3-yl)phenyl)-4-(trifluoromethyl)-6-((2-(trifluoromethyl)morpholino)methyl)isoindolin-1-one] | ≤ 100 | < 100
20 | Cn1cnnc1CC1(c2cccc(N3Cc4c(cc(CN5CCOC(C)(C)C5)cc4C(F)(F)F)C3=O)c2)COC1 [Example 665, 6-((2,2-dimethylmorpholino)methyl)-2-(3-(3-((4-methyl-4H-1,2,4-triazol-3-yl)methyl)oxetan-3-yl)phenyl)-4-(trifluoromethyl)isoindolin-1-one] | ≤ 100 | < 100
21 | CC(c1cc2c(c(C(F)(F)F)c1)CN(c1cccc(C3(C(F)(F)c4nncn4C)COC3)c1)C2=O)N1CC[C@H](F)C1 (stereo partly drawn) [Example 678, 2-(3-(3-(difluoro(4-methyl-4H-1,2,4-triazol-3-yl)methyl)oxetan-3-yl)phenyl)-6-(l-((S)-3-fluoropyrrolidin-1-yl)ethyl)-4-(trifluoromethyl)isoindolin-1-one] | ≤ 100 | < 100
22 | Cn1cnnc1CC1(c2cccc(N3Cc4c(cc(CN5CCO[C@H](CO)C5)cc4C(F)(F)F)C3=O)c2)COC1 [Example 710, (S)-6-((2-(hydroxymethyl)morpholino)methyl)-2-(3-(3-((4-methyl-4H-1,2,4-triazol-3-yl)methyl)oxetan-3-yl)phenyl)-4-(trifluoromethyl)isoindolin-1-one] | ≤ 100 | < 100
